Measurements as given in publication PMC5146859, “Phase 1/2 study of pacritinib, a next generation JAK2/FLT3 inhibitor, in myelofibrosis or other myeloid malignancies” (Journal of Hematology & Oncology, 2016).

System: patients with advanced myeloid malignancies
Assay: Phase 1 safety: adverse events (NCIC-CTCAE version 3.0)
Assay type: in vivo, human
Procedure: At screening/baseline, patients underwent a medical history, physical examination, vital sign assessment, ECOG PS assessment, electrocardiogram, and assessment of hematologic parameters and blood chemistry. Hematology/blood chemistry, physical examinations, and vital sign assessments were performed throughout treatment. Toxicity was assessed using the National Cancer Institute Common Terminology Criteria for Adverse Events (NCIC-CTCAE), version 3.0, with relationship to treatment assigned by the investigator and were recorded from the first dose of pacritinib until 30 days after the last dose. Bone marrow biopsy and/or aspirate samples were drawn at baseline, on day 1 of cycle 4 and cycle 10, as clinically indicated, and at the termination visit. Disease response and progression were determined using the relevant International Working Group (IWG) criteria.
The efficacy-evaluable population included those patients with a baseline and corresponding follow-up value. The safety population included all enrolled patients who received ≥1 dose of pacritinib.

C1=C/COCc2cc(ccc2OCCN2CCCC2)Nc2nccc(n2)-c2cccc(c2)COC/1 [pacritinib, 11-(2-pyrrolidin-1-yl-ethoxy)-14,19-dioxa-5,7,26-triaza-tetracyclo[19.3.1.1(2,6). 1(8,12)]heptacosa-1(25),2(26),3,5,8,10,12(27),16,21,23-decaene]
1 (16.7) n (%): Treatment-emergent AE: Abdominal distension (phase 1, 300 mg, n = 6) | Treatment-emergent AE: Abdominal pain (phase 1, 300 mg, n = 6) | Treatment-emergent AE: Anemia (phase 1, 300 mg, n = 6) | Treatment-emergent AE: Back pain (phase 1, 300 mg, n = 6) | Treatment-emergent AE: Constipation (phase 1, 300 mg, n = 6) | Treatment-emergent AE: Cough (phase 1, 300 mg, n = 6) | Treatment-emergent AE: Dizziness (phase 1, 300 mg, n = 6) | Treatment-emergent AE: Hyperbilirubinemia (phase 1, 300 mg, n = 6) | Treatment-emergent AE: Insomnia (phase 1, 300 mg, n = 6) | Treatment-emergent AE: Neutropenia (phase 1, 300 mg, n = 6) | Treatment-emergent AE: Pain in extremity (phase 1, 300 mg, n = 6) | Treatment-emergent AE: Pyrexia (phase 1, 300 mg, n = 6) | Treatment-emergent AE: Thrombocytopenia (phase 1, 300 mg, n = 6) | Treatment-emergent AE: Upper respiratory tract infection (phase 1, 300 mg, n = 6) | Treatment-emergent AE: Cardiac murmur (phase 1, 400 mg, n = 6) | Treatment-emergent AE: Chills (phase 1, 400 mg, n = 6) | Treatment-emergent AE: Cough (phase 1, 400 mg, n = 6) | Treatment-emergent AE: Dizziness (phase 1, 400 mg, n = 6) | Treatment-emergent AE: Epistaxis (phase 1, 400 mg, n = 6) | Treatment-emergent AE: Hyperbilirubinemia (phase 1, 400 mg, n = 6) | Treatment-emergent AE: Insomnia (phase 1, 400 mg, n = 6) | Treatment-emergent AE: Neutropenia (phase 1, 400 mg, n = 6)
3 (50.0) n (%): Treatment-emergent AE: Diarrhea (phase 1, 300 mg, n = 6) | Treatment-emergent AE: Nausea (phase 1, 300 mg, n = 6) | Treatment-emergent AE: Abdominal distension (phase 1, 400 mg, n = 6) | Treatment-emergent AE: Decreased appetite (phase 1, 400 mg, n = 6)
2 (33.3) n (%): Treatment-emergent AE: Epistaxis (phase 1, 300 mg, n = 6) | Treatment-emergent AE: Fatigue (phase 1, 300 mg, n = 6) | Treatment-emergent AE: Vomiting (phase 1, 300 mg, n = 6) | Treatment-emergent AE: Abdominal pain (phase 1, 400 mg, n = 6) | Treatment-emergent AE: Anemia (phase 1, 400 mg, n = 6) | Treatment-emergent AE: Back pain (phase 1, 400 mg, n = 6) | Treatment-emergent AE: Constipation (phase 1, 400 mg, n = 6) | Treatment-emergent AE: Dehydration (phase 1, 400 mg, n = 6) | Treatment-emergent AE: Dyspnea (phase 1, 400 mg, n = 6) | Treatment-emergent AE: Edema peripheral (phase 1, 400 mg, n = 6) | Treatment-emergent AE: Fatigue (phase 1, 400 mg, n = 6) | Treatment-emergent AE: Night sweats (phase 1, 400 mg, n = 6)
3 (33.3) n (%): Treatment-emergent AE: Fatigue (phase 1, 200 mg, n = 9)
1 (11.1) n (%): Treatment-emergent AE: Edema peripheral (phase 1, 200 mg, n = 9) | Treatment-emergent AE: Epistaxis (phase 1, 200 mg, n = 9) | Treatment-emergent AE: Hyperbilirubinemia (phase 1, 200 mg, n = 9) | Treatment-emergent AE: Night sweats (phase 1, 200 mg, n = 9) | Treatment-emergent AE: Skin lesion (phase 1, 200 mg, n = 9)
0 n (%): Treatment-emergent AE: Dehydration (phase 1, 200 mg, n = 9) | Treatment-emergent AE: Dyspnea (phase 1, 200 mg, n = 9) | Treatment-emergent AE: Hyperuricemia (phase 1, 200 mg, n = 9) | Treatment-emergent AE: Neutropenia (phase 1, 200 mg, n = 9) | Treatment-emergent AE: Pain in extremity (phase 1, 200 mg, n = 9) | Treatment-emergent AE: Petechiae (phase 1, 200 mg, n = 9) | Treatment-emergent AE: Thrombocytopenia (phase 1, 200 mg, n = 9) | Treatment-emergent AE: Asthenia (phase 1, 300 mg, n = 6) | Treatment-emergent AE: Cardiac murmur (phase 1, 300 mg, n = 6) | Treatment-emergent AE: Chills (phase 1, 300 mg, n = 6) | Treatment-emergent AE: Decreased appetite (phase 1, 300 mg, n = 6) | Treatment-emergent AE: Dehydration (phase 1, 300 mg, n = 6) | Treatment-emergent AE: Dyspnea (phase 1, 300 mg, n = 6) | Treatment-emergent AE: Edema peripheral (phase 1, 300 mg, n = 6) | Treatment-emergent AE: Hyperuricemia (phase 1, 300 mg, n = 6) | Treatment-emergent AE: Night sweats (phase 1, 300 mg, n = 6) | Treatment-emergent AE: Petechiae (phase 1, 300 mg, n = 6) | Treatment-emergent AE: Skin lesion (phase 1, 300 mg, n = 6) | Treatment-emergent AE: Asthenia (phase 1, 400 mg, n = 6) | Treatment-emergent AE: Hyperuricemia (phase 1, 400 mg, n = 6) | Treatment-emergent AE: Pain in extremity (phase 1, 400 mg, n = 6)
2 (22.2) n (%): Treatment-emergent AE: Dizziness (phase 1, 200 mg, n = 9) | Treatment-emergent AE: Insomnia (phase 1, 200 mg, n = 9) | Treatment-emergent AE: Nausea (phase 1, 200 mg, n = 9) | Treatment-emergent AE: Pyrexia (phase 1, 200 mg, n = 9) | Treatment-emergent AE: Upper respiratory tract infection (phase 1, 200 mg, n = 9)
6 (100.0) n (%): Treatment-emergent AE: Any AE (phase 1, 300 mg, n = 6) | Treatment-emergent AE: Any AE (phase 1, 400 mg, n = 6) | Treatment-emergent AE: Diarrhea (phase 1, 400 mg, n = 6)
4 (66.7) n (%): Treatment-emergent AE: Nausea (phase 1, 400 mg, n = 6)
5 (55.6) n (%): Treatment-emergent AE: Diarrhea (phase 1, 200 mg, n = 9)
4 (44.4) n (%): Treatment-emergent AE: Vomiting (phase 1, 200 mg, n = 9)
